Assay: Binding affinity against bacterial 16S rRNA using mass spectrometry based assay
Set-up: species or system Escherichia coli

| Compound | Kd [µM] |
| --- | --- |
| CN(CCCCCCN(C)CC(O)CO[C@H]1O[C@H](CN)[C@@H](O)[C@H](O)[C@H]1N)CC(O)CO[C@@H]1O[C@H](CN)[C@@H](O)[C@H](O)[C@H]1N (stereo partly drawn) | 11 |
| NC[C@H]1O[C@H](OCC(O)CN2CCN(CC(O)CO[C@H]3O[C@H](CN)[C@@H](O)[C@H](O)[C@H]3N)CC2)[C@H](N)[C@@H](O)[C@@H]1O (stereo partly drawn) | 32 |
| CN(CCN(C)CC(O)CO[C@H]1O[C@H](CN)[C@@H](O)[C@H](O)[C@H]1N)CC(O)CO[C@@H]1O[C@H](CN)[C@@H](O)[C@H](O)[C@H]1N (stereo partly drawn) | 20 |
| N[C@@H]1C[C@H](N)[C@@H](OC(=O)CCCC(=O)O[C@H]2[C@H](O)[C@@H](O)[C@H](N)C[C@@H]2N)[C@H](O)[C@H]1O | 105 |
| C=CCO[C@H]1O[C@H](CN)C(O)[C@H](O)[C@H]1N (stereo partly drawn) | 327 |
| CN(CCCCN(C)CC(O)CO[C@H]1[C@H](O)[C@@H](O)[C@H](N)C[C@@H]1N)CC(O)CO[C@H]1[C@H](O)[C@@H](O)[C@H](N)C[C@@H]1N (stereo partly drawn) | 16 |
| CN(CCCCCCN(C)CC(O)CO[C@H]1[C@H](O)[C@@H](O)[C@H](N)C[C@@H]1N)CC(O)CO[C@H]1[C@H](O)[C@@H](O)[C@H](N)C[C@@H]1N (stereo partly drawn) | 21 |
| N[C@@H]1C[C@H](N)[C@@H](O)[C@H](OCC(O)CNCCCCNCC(O)CO[C@@H]2[C@@H](O)[C@H](N)C[C@H](N)[C@H]2O)[C@H]1O (stereo partly drawn) | 96 |
| N[C@@H]1C[C@H](N)[C@@H](O)[C@H](O)[C@H]1O | 130 |
| CN(CCCCCCN(C)CC(O)CO[C@H]1O[C@H](CO)[C@@H](O)[C@H](O)[C@H]1N)CC(O)CO[C@@H]1O[C@H](CO)[C@@H](O)[C@H](O)[C@H]1N (stereo partly drawn) | 52 |
| C=CCO[C@H]1O[C@H](CO)[C@@H](O)[C@H](O)[C@H]1N | 1590 |
| CN(CCCCN(C)CC(O)CO[C@H]1O[C@H](CO)[C@@H](O)[C@H](O)[C@H]1N)CC(O)CO[C@@H]1O[C@H](CO)[C@@H](O)[C@H](O)[C@H]1N (stereo partly drawn) | 45 |
| CN(CCCCN(C)CC(O)CO[C@H]1O[C@H](CN)[C@@H](O)[C@H](O)[C@H]1N)CC(O)CO[C@@H]1O[C@H](CN)[C@@H](O)[C@H](O)[C@H]1N (stereo partly drawn) | 16 |

More lines, now with the values ahead:

| Kd [µM] | Compound |
| --- | --- |
| 57 | CN(CCN(C)CC(O)CO[C@H]1[C@H](O)[C@@H](O)[C@H](N)C[C@@H]1N)CC(O)CO[C@H]1[C@H](O)[C@@H](O)[C@H](N)C[C@@H]1N (stereo partly drawn) |
| 54 | CN(CCCCN(C)CC(O)CO[C@H]1[C@H](O)[C@@H](O)[C@H](N)C[C@@H]1N)CC(O)CO[C@H]1O[C@H](CO)[C@@H](O)[C@H](O)[C@H]1N (stereo partly drawn) |
| 39 | CN(CCCCCCN(C)CC(O)CO[C@H]1[C@H](O)[C@@H](O)[C@H](N)C[C@@H]1N)CC(O)CO[C@H]1O[C@H](CO)[C@@H](O)[C@H](O)[C@H]1N (stereo partly drawn) |
| 25 | CN(CCCCN(C)CC(O)CO[C@@H]1[C@@H](O)[C@H](N)C[C@H](N)[C@H]1O)CC(O)CO[C@H]1O[C@H](CN)[C@@H](O)[C@H](O)[C@H]1N (stereo partly drawn) |
| 335 | CN(CCN(C)CC(O)CO[C@H]1[C@H](O)[C@@H](O)[C@H](N)C[C@@H]1N)CC(O)CO[C@H]1O[C@H](CO)[C@@H](O)[C@H](O)[C@H]1N (stereo partly drawn) |
| 29 | CN(CCCCN(C)CC(O)CO[C@@H]1[C@@H](O)[C@H](N)C[C@H](N)[C@H]1O)CC(O)CO[C@H]1O[C@H](CO)[C@@H](O)[C@H](O)[C@H]1N (stereo partly drawn) |
| 146 | CN(CCN(C)CC(O)CO[C@H]1O[C@H](CO)[C@@H](O)[C@H](O)[C@H]1N)CC(O)CO[C@@H]1O[C@H](CO)[C@@H](O)[C@H](O)[C@H]1N (stereo partly drawn) |
| 13 | CN(CCCCN(C)CC(O)CO[C@H]1[C@H](O)[C@@H](O)[C@H](N)C[C@@H]1N)CC(O)CO[C@H]1O[C@H](CN)[C@@H](O)[C@H](O)[C@H]1N (stereo partly drawn) |
| 32 | CN(CCCCCCN(C)CC(O)CO[C@H]1[C@H](O)[C@@H](O)[C@H](N)C[C@@H]1N)CC(O)CO[C@H]1O[C@H](CN)[C@@H](O)[C@H](O)[C@H]1N (stereo partly drawn) |
| 47 | CN(CCN(C)CC(O)CO[C@H]1[C@H](O)[C@@H](O)[C@H](N)C[C@@H]1N)CC(O)CO[C@H]1O[C@H](CN)[C@@H](O)[C@H](O)[C@H]1N (stereo partly drawn) |

From ChEMBL document CHEMBL1136346, “Synthesis of linked carbohydrates and evaluation of their binding for 16S RNA by mass spectrometry” (Bioorg Med Chem Lett, 2003)
